Data reported in the RepoRT retention time repository (doi:10.1021/acs.analchem.2c02893).

Assay: RP, Thermo Scientific Acclaim RSLC 120 C18, 100 × 2.1 mm, 2.2 µm, 30 °C, 0.2 mL/min, estimated dead time 1.1 min; A: 90% water + 10% methanol + 0.01% formic acid + 5 mM ammonium formate, pH 3.61; B: methanol + 0.01% formic acid + 5 mM ammonium formate, pH 3.61; gradient (min/%B) 0/1 1/1 2/39 13/99.9 15/99.9 15.1/1 20.1/1
Conditions: stereoisomer not certain

LC retention time [min]	Structure (SMILES)
7.14	CCCc1nn(C)c2c(=O)[nH]c(-c3cc(C(=O)CN4CCCCC4)ccc3OCC)nc12 [Piperiacetildenafil]
7.17	NS(=O)(=O)c1cc(C(=O)O)cc(N2CCCC2)c1Oc1ccccc1 [Piretanide]
6.23	CCN1CC(CCN2CCOCC2)C(c2ccccc2)(c2ccccc2)C1=O (centres undefined) [Doxapram]
4.39	CC(CCc1ccc(O)cc1)NCC(O)c1ccc(O)cc1 (centres undefined) [Ractopamine]
5.66	O=C(O)c1cc(N=Nc2ccc(O)c(C(=O)O)c2)ccc1O [Olsalazine]
11.8	COC(=O)C(c1ccccc1Cl)N1CCc2sccc2C1 (centres undefined) [Clopidogrel]
11.8	CCCCCCCCCCCCCCN(C)C [N,N-Dimethyltetradecylamine]
2.63	N=C(N)c1ccccc1 [Benzamidine]
8.56	CC12CCC3c4cc(O)c(O)cc4CCC3C1CCC2=O (centres undefined)
13.9	CC1COCc2cc3c(cc21)C(C)(C)C(C)C3(C)C (centres undefined) [Galaxolide]
3.56	CCOc1ccc(S(=O)(=O)O)c2cccnc12 [Actinoquinol]

More lines, now with the values behind:

Structure (SMILES)	LC retention time [min]
COC(=O)c1c(Cl)ccc(Cl)c1OC [Dicamba-methyl]	9.64
CCOP(=S)(OCC)Oc1ccc(S(C)=O)cc1 (centres undefined) [Fensulfothion]	8.27
CCOC(=O)C1=C(C)NC(C)=C(C(=O)OC)C1c1cccc(Cl)c1Cl (centres undefined) [Felodipine]	11
CN1CC2CC1CN2c1cc2c(cc1F)c(=O)c(C(=O)O)cn2C1CC1 (centres undefined) [Danofloxacin]	4.54
CCCCCn1nc(C(=O)NC(C)(C)c2ccccc2)c2ccccc21 [Cumyl-PINACA]	12.5
CCC[N+]12C(O)C(CC)C3CC1C1N(C)c4ccccc4C14CC2C3C4O (centres undefined) [Prajmaline]	6.07
C=CC=CCC1=C(C)C(OC(=O)C2C(C=C(C)C)C2(C)C)CC1=O (centres undefined) [Pyrethrin I]	12.9
CCS(=O)c1c(C#N)nn(-c2c(Cl)cc(C(F)(F)F)cc2Cl)c1N (centres undefined) [Ethiprole]	9.32
O=C1CN=C(c2ccccc2F)c2cc([N+](=O)[O-])ccc2N1 [Flunitrazepam-N-Desmethyl (Norflunitrazepam)]	7.35
Cc1cccc(CC(C)N)c1 (centres undefined) [Amphetamine-3-methyl]	5.17
CN(C)C(=O)C(c1ccccc1)c1ccccc1 [Diphenamide]	8.57
CN(C)CCOC(c1ccc(Cl)cc1)c1ccccn1 (centres undefined) [Carbinoxamine]	6.08
CNC(C)C(=O)c1ccc2c(c1)OCO2 (centres undefined) [Methylone (MDMC)]	3.81
Cc1cccc(OCC(O)CNC(C)C)c1 (centres undefined) [Toliprolol]	5.29
CCNP(=S)(OC)OC(C)=CC(=O)OC(C)C (centres undefined) [Propetamphos]	9.79
CC(C)(Oc1ccc(C(=O)c2ccc(Cl)cc2)cc1)C(=O)O [Fenofibric acid]	9.68
CCCCCn1cc(C(=O)c2cccc3ccccc23)c2cc(O)ccc21 [JWH-018-M-5-OH-Ind]	11.3
OC(c1ccc(Cl)cc1)(c1ccc(Cl)cc1)C(Cl)(Cl)Cl [Dicofol]	11.8
CCCC(C)C(=O)Nc1ccc(C)c(Cl)c1 (centres undefined) [Pentanochlor]	10.6
Cc1ccc(N(CC2=NCCN2)c2cccc(O)c2)cc1 [Phentolamine]	5.86
CNC(=O)Oc1cccc2ccccc12 [Carbaryl]	7.46
CC1c2cccc(O)c2C(O)=C2C(=O)C3(O)C(O)=C(C(N)=O)C(=O)C(N(C)C)C3C(O)C21 (centres undefined) [Doxycycline]	6.2
COC(C)C(O)(C(=O)OCC1=CC[N+]2([O-])CCC(O)C12)C(C)C (centres undefined) [Heliotrine-N-oxide]	3.49
